Columns and labels:
[1] = Antitumor activity against multidrug resistant human KBv200 cell xenografted mouse assessed as inhibition of tumor growth at 900 ug/kg administered every 2 days for 6 days; assay type: functional
KB = test: Antitumor activity against human KB cell xenografted mouse assessed as inhibition of tumor growth at 900 ug/kg administered every 2 days for 6 days; assay type: functional
P388 [2] = test: Antitumor activity against mouse P388 cells xenografted mouse at 0.95 mg/kg/day for 10 days by 3PS assay; assay type: functional
P388 [3] = test: Antitumor activity against mouse P388 cells xenografted mouse at 0.025 mg/kg/day for 10 days by 3PS assay; assay type: functional
P388 [4] = test: Antitumor activity against mouse P388 cells at 25 ug/kg by in vivo 3PS assay; assay type: functional
L1210 [5] = test: Antitumor activity against mouse L1210 cell xenografted mouse at 200 ug/kg; assay type: functional
Mus musculus = test: Toxicity in mouse P388 cells xenografted mouse at 0.22 mg/kg/day for 10 days; conditions: in vivo, 240 h
L1210 [6] = test: Antitumor activity against mouse L1210 cell xenografted mouse at 400 ug/kg; assay type: functional
A2780 [7] = test: Antitumor activity against human A2780 cell xenografted athymic mouse at 125 ug/kg/day; assay type: functional; conditions: read-out: TGI
A2780 [8] = test: Antitumor activity against human A2780 cell xenografted athymic mouse at 1000 ug/kg/day; assay type: functional; conditions: read-out: TGI
L1210 [9] = test: Antitumor activity against mouse L1210 cell xenografted mouse at 15000 ug/kg; assay type: functional
P388 [10] = test: Antitumor activity against mouse P388 cells at 250 ug/kg by in vivo 3PS assay; assay type: functional
P388 [11] = test: Antitumor activity against mouse P388 cells in at 1.4 mg/kg by in vivo 3PS assay; assay type: functional

SMILES: CCCCC[C@@H](O)[C@H](O)CCC[C@@H](O)[C@H]1CC[C@H]([C@H]2CC[C@H]([C@H](O)CCCCCCCCCCCCC3=C[C@H](C)OC3=O)O2)O1
- inhibition in vivo at 0.9 mg/kg [1]: 56.5%
- inhibition in vivo at 0.9 mg/kg (KB): 52.3%

SMILES: CCCCCCCCCCCC[C@@H](O)[C@H]1CC[C@H]([C@H](O)CCCC[C@H](O)CCCCC[C@@H](O)CC2=CC(C)OC2=O)O1 (some centres undefined) [ANNONACIN]
- T/C (P388 [2]): 124%

SMILES: CCCCCCCCCCC(O)C1CCC(C2CCC(C(O)CCCCCCCC[C@H](O)CC3=C[C@@H](C)OC3=O)O2)O1 (some centres undefined) [ASIMICIN]
- T/C (P388 [3]): 124%
- T/C (P388 [4]): 124%
- T/C (L1210 [5]): 131%

SMILES: CCCCCCCCCC[C@@H](O)[C@H]1CC[C@H]([C@H]2CC[C@H]([C@H](O)CCCCCCCCCC[C@@H](O)CC3=C[C@H](C)OC3=O)O2)O1 [ASIMICIN]
- Activity (Mus musculus): Toxic

SMILES: CCCCCCCCCC[C@H](O)[C@H]1CC[C@H]([C@H]2CC[C@H]([C@H](O)CCCCCCCCCC[C@@H]3CC(CC(C)=O)C(=O)O3)O2)O1 (some centres undefined) [BULLATACINONE]
- T/C (L1210 [6]): 144%
- inhibition in vivo at 0.125 mg/kg/day (A2780 [7]): 52%

SMILES: CCCCCCCCCC[C@H](O)[C@H]1CC[C@H]([C@H](O)CC[C@H](O)[C@@H]2CC[C@@H](CCCCCCC[C@@H](O)CC3=C[C@H](C)OC3=O)O2)O1 [BULLATALICIN]
- inhibition in vivo at 1 mg/kg/day (A2780 [8]): 75%

SMILES: CC(=O)O[C@H]1C(=O)[C@@]2(C)[C@H]([C@H](OC(=O)c3ccccc3)[C@]3(O)C[C@H](OC(=O)[C@H](O)[C@@H](NC(=O)c4ccccc4)c4ccccc4)C(C)=C1C3(C)C)[C@]1(OC(C)=O)CO[C@@H]1C[C@@H]2O [PACLITAXEL]
- T/C (L1210 [9]): 139%

SMILES: CCCCCCCCCCC(O)C1CCC(C2CCC(C(O)CCCCCCCCCCC(O)CC3=CC(C)OC3=O)O2)O1 (centres undefined) [ROLLINIASTATIN]
- T/C (P388 [10]): 128%

SMILES: CCCCCCCCCCC(O)C1CCC(C2CCC(C(O)C(=O)CCCCCCCCCCCC3CC(C)OC3=O)O2)O1 (centres undefined) [ROLLINONE]
- T/C (P388 [11]): 147%

SMILES: CCCCCCCCCC[C@H](OC(C)=O)[C@H]1CC[C@H]([C@H]2CC[C@H]([C@H](O)CCCCCCCCCCCCC3=C[C@H](C)OC3=O)O2)O1 [UVARICIN]
- T/C (P388 [11]): 157%
